Test results as given in ChEMBL document CHEMBL1201862, “PubChem BioAssay data set” (2004).
The source made the active and inactive calls.

What was measured:
Escherichia coli = test: microbe, parasite or virus in culture
Leucine aminopeptidase = molecular target: T1, Leucine aminopeptidase (Plasmodium falciparum 3D7, UniProt Q8IL11); test: P. falciparum M17LAP inhibitors, primary screen, biochemical, fluorogenic H-Leu-NHMec substrate, 1536-well (AID 1619); type: functional
T1 sequence (Q8IL11 whole entry): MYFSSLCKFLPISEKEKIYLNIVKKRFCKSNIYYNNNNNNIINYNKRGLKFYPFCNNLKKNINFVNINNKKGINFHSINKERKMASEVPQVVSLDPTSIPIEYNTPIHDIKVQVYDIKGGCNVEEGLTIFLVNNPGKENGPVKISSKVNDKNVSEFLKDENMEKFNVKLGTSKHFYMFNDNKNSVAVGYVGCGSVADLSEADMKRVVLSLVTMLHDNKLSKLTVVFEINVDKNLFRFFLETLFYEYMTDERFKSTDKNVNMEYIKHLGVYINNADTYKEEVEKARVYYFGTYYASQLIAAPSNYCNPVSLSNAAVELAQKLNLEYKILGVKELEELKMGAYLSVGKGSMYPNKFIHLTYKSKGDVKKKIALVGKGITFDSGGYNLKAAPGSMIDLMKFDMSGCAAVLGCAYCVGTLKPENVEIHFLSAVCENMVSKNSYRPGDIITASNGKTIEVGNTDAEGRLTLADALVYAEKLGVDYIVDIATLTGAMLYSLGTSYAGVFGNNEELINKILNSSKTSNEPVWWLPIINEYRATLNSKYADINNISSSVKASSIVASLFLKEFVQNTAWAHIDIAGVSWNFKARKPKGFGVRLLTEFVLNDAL

Aminopeptidase N = molecular target: T2, Aminopeptidase N (Plasmodium falciparum FcB1/Columbia, UniProt O96935); test: P. falciparum M1AAP inhibitors, biochemical, fluorogenic H-Leu-NHMec substrate, 1536-well (AID 1445); set-up: species or system Plasmodium falciparum 3D7, 3D7
T2 sequence (O96935 whole entry): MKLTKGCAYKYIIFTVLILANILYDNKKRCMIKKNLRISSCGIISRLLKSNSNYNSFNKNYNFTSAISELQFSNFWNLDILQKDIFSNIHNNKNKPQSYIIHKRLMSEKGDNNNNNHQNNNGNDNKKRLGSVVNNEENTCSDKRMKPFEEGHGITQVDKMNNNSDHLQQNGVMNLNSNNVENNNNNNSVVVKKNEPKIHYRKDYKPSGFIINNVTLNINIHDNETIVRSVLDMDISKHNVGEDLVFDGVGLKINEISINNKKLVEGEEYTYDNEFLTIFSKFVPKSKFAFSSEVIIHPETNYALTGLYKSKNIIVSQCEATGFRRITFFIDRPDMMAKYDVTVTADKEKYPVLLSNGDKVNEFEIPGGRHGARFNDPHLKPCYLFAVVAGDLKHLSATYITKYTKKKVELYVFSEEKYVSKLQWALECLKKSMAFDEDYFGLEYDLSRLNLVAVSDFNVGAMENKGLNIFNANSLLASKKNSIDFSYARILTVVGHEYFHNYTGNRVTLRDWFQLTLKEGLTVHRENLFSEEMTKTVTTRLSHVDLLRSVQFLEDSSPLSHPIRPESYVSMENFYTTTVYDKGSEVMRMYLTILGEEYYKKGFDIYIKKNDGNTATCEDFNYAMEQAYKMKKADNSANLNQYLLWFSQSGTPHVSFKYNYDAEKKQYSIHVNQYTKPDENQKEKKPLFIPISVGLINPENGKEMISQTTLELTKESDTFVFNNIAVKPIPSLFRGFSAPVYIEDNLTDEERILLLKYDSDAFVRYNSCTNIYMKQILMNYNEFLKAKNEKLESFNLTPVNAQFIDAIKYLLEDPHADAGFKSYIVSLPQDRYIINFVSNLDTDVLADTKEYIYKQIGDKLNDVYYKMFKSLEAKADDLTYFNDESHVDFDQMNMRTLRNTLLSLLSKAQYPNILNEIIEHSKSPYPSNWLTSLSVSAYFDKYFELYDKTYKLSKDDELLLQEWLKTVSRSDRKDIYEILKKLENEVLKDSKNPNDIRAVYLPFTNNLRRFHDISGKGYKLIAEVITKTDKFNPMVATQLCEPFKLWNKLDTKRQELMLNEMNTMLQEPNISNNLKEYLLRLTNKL

Beta-galactosidase = Beta-galactosidase (Escherichia coli, UniProt Q8VNN2); test: PubChem AID 485352; type: functional
[1] = molecular target: T3, Type-1 angiotensin II receptor (Homo sapiens, UniProt P30556); test: AT1 receptor antagonists, dose response, selectivity assay for APJ receptor antagonist project, cell-based, uHTS hits (AID 463214); type: functional;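 note: antagonist potency against angiotensin II stimulated AT1 response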
T3 sequence (P30556 whole entry): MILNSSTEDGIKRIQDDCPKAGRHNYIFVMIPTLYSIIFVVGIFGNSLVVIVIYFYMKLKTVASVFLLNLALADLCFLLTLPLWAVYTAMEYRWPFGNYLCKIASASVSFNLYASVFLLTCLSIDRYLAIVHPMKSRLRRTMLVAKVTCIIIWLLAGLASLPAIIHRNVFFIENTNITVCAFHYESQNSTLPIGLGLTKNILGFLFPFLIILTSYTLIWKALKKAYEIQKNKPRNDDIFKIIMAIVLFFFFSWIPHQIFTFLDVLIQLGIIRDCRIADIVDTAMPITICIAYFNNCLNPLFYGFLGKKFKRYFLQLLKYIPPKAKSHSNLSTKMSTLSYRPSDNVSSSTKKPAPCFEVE

[2] = molecular target: Voltage-dependent T-type calcium channel subunit alpha-1H (Homo sapiens, UniProt O95180); type: functional;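 note: channel activity triggered by adding a high calcium stimulation buffer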
[3] = molecular target: T4, Short transient receptor potential channel 4 (Mus musculus, UniProt Q9QUQ5); test: mouse TRPC4 channel inhibitors, dose response, cell-based, HEK293 TRPC4/mu-opioid, Fluo-4 calcium (AID 434942); type: functional;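 note: potency of inhibitors blocking the TRPC4 calcium response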
T4 sequence (Q9QUQ5 whole entry): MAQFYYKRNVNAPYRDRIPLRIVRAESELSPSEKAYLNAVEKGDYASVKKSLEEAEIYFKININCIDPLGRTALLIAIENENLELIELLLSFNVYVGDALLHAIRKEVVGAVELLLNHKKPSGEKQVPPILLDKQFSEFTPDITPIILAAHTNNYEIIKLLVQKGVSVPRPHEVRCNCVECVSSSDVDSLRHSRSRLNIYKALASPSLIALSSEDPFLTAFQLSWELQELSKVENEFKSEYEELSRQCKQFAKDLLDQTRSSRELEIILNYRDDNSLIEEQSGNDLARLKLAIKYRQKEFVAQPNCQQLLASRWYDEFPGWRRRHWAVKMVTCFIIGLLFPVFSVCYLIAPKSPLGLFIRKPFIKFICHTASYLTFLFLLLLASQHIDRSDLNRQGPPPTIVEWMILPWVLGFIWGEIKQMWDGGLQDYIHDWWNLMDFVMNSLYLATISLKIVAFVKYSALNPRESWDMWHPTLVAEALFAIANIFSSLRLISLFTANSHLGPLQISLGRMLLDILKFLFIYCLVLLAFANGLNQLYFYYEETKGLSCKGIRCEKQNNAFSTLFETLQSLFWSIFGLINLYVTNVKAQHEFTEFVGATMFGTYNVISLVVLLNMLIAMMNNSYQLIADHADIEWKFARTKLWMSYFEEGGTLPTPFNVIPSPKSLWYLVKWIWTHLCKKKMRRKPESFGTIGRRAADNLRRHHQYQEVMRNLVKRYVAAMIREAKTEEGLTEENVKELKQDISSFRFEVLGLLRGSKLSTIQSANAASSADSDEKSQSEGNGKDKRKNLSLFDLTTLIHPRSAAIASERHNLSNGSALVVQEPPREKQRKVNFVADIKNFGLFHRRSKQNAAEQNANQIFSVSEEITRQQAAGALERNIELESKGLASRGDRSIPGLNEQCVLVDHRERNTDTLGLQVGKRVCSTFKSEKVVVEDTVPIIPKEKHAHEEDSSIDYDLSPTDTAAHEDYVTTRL

[4] = Shn3 3'UTR reporter inhibitors, dose response, cell-based, Clone20 osteoblasts, firefly luciferase, cherry-picked (AID 624132); type: functional;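 note: firefly luciferase luminescence from reporter carrying the Shn3 3'UTR in osteoblasts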
HEK293 [5] = test: NOD1 signaling inhibitors, primary screen, cell-based, luminescence, uHTS (AID 1578); type: functional; settings: Homo sapiens
[6] = HepG2 cell cytotoxicity, dose response, cytotoxicity control for Shn3 inhibitor project, CellTiter-Glo, cherry-picked (AID 624134); type: functional, cell-based
HEK293 [7] = test: cells; type: functional, cell-based; settings: Homo sapiens
HEK293 [8] = test: cells; type: functional, cell-based; settings: Homo sapiens; remark: listed apart in the source
[9] = cytotoxicity in HEK-293T cells, dose response, cytotoxicity control for TCR NF-kB inhibitor project, luminescence, T-cell screen hits (AID 489026); type: functional, cell-based;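 note: cells exposed to compound about 14 hours before the viability readout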
HEK293 [10] = test: NOD2 signaling inhibitors in MDP-stimulated cells, cell-based, uHTS, luminescence (AID 2001); type: functional; settings: Homo sapiens
HEK293 [11] = test: cells; type: functional, cell-based; settings: Homo sapiens; remark: listed apart in the source
[12] = molecular target: Nucleotide-binding oligomerization domain-containing protein 2 (Homo sapiens, UniProt Q9HC29); test: NOD2 signaling inhibitors, cell-based, luminescence, uHTS, HEK293 (AID 1566); type: functional
INS1 = test: beta cell apoptosis inhibitors, cytokine rescue, dose response, luminescence, retest (AID 449756); type: functional, cell-based; settings: Rattus norvegicus;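 note: cell death triggered by IL-1 beta plus TNF-alpha plus IFN-gamma mixture; protective hits raise ATP signal compared with cytokine alone wells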
[13] = molecular target: T5, Alkaline phosphatase, tissue-nonspecific isozyme (Homo sapiens, UniProt P05186); test: human TNAP enzyme inhibitors, SAR follow-up, biochemical, luminescent, dose response (AID 1056)
T5 sequence (P05186 whole entry): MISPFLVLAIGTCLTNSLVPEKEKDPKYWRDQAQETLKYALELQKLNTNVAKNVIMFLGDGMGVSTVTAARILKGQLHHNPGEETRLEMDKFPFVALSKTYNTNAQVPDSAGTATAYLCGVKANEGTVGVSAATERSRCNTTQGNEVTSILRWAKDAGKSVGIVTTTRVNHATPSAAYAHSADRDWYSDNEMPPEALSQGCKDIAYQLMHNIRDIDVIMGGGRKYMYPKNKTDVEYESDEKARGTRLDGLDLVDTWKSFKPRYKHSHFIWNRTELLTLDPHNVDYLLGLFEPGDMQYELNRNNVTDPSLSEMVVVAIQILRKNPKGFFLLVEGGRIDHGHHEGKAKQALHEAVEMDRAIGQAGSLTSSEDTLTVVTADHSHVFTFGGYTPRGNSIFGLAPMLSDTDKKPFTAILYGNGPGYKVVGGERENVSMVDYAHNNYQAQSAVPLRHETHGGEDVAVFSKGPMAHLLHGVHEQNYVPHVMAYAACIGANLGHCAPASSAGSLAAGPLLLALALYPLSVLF

[14] = molecular target: Alkaline phosphatase, placental type (Homo sapiens, UniProt P05187); test: PLAP enzyme inhibitors, confirmation, biochemical, luminescence (AID 1512); type: functional
Sequence of Alkaline phosphatase, placental type (P05187 whole entry): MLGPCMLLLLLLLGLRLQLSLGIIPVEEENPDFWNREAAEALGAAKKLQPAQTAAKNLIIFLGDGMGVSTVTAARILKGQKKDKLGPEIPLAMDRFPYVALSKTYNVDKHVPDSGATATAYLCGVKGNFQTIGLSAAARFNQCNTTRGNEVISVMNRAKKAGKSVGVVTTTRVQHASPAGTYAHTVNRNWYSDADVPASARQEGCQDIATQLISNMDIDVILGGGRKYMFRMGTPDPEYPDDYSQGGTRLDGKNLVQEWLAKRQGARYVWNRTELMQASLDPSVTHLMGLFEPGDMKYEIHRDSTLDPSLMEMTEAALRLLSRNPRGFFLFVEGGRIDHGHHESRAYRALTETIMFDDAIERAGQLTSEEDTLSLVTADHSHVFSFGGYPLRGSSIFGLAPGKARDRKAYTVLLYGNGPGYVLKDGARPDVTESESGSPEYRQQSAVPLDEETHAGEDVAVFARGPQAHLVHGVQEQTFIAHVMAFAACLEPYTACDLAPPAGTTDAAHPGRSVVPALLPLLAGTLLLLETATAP

Sequence of Voltage-dependent T-type calcium channel subunit alpha-1H (O95180 whole entry): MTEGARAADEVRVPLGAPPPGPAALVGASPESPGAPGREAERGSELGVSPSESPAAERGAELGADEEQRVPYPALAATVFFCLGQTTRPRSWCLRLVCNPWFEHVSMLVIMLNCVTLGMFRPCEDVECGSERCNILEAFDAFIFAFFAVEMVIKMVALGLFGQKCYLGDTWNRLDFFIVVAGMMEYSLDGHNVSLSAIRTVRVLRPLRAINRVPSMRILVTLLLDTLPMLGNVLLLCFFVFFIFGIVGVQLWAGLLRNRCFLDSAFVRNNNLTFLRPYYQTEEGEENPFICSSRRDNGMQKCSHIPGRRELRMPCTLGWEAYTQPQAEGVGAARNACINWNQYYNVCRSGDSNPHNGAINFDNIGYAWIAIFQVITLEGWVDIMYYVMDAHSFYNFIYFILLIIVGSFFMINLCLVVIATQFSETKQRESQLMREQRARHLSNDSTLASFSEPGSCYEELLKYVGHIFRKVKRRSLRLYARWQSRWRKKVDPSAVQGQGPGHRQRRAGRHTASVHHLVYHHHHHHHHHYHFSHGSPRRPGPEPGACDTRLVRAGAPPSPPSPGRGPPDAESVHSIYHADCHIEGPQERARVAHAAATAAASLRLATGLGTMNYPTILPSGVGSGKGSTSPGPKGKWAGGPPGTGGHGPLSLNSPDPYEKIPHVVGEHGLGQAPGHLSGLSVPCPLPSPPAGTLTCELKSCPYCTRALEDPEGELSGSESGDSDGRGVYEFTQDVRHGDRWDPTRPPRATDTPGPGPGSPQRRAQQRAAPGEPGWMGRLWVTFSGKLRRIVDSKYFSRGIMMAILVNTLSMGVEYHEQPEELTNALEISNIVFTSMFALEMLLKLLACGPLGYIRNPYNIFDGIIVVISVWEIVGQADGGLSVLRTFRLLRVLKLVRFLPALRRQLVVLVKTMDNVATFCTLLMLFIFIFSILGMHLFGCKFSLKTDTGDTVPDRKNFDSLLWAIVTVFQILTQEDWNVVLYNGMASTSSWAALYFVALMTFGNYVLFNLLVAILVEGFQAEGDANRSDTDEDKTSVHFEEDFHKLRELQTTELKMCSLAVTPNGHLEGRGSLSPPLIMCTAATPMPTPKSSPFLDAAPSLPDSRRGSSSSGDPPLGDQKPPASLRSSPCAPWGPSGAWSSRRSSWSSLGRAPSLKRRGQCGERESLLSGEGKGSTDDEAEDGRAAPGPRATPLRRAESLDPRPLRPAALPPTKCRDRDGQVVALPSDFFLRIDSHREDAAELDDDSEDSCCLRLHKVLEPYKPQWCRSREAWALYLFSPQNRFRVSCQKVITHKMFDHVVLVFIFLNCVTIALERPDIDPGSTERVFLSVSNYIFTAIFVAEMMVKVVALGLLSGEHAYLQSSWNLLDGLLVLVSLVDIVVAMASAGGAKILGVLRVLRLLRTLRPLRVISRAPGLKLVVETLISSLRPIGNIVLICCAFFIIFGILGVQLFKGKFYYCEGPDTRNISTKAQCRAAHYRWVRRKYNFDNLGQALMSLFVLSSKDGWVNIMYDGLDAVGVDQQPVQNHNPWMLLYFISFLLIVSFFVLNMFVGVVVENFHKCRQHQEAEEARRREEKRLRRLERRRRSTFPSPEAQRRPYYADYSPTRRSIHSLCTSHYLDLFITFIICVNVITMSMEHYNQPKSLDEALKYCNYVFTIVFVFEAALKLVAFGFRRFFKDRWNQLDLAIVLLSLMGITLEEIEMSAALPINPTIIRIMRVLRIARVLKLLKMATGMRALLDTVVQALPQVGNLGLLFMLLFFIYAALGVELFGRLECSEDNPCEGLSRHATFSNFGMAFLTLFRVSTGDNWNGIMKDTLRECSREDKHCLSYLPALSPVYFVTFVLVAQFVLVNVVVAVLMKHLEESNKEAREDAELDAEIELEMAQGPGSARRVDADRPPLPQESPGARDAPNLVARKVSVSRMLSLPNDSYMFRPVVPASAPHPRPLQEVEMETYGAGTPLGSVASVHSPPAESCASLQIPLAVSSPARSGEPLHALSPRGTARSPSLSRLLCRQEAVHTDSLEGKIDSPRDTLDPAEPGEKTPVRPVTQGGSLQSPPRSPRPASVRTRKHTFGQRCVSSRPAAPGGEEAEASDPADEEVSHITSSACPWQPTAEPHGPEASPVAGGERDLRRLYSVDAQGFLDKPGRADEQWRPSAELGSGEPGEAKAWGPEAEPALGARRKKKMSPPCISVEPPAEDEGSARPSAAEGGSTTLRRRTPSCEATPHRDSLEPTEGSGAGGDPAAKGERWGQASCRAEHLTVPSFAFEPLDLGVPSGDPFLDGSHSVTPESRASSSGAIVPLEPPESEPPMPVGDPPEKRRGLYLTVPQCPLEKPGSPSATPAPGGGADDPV
Sequence of Nucleotide-binding oligomerization domain-containing protein 2 (Q9HC29 whole entry, the tested form may be a part): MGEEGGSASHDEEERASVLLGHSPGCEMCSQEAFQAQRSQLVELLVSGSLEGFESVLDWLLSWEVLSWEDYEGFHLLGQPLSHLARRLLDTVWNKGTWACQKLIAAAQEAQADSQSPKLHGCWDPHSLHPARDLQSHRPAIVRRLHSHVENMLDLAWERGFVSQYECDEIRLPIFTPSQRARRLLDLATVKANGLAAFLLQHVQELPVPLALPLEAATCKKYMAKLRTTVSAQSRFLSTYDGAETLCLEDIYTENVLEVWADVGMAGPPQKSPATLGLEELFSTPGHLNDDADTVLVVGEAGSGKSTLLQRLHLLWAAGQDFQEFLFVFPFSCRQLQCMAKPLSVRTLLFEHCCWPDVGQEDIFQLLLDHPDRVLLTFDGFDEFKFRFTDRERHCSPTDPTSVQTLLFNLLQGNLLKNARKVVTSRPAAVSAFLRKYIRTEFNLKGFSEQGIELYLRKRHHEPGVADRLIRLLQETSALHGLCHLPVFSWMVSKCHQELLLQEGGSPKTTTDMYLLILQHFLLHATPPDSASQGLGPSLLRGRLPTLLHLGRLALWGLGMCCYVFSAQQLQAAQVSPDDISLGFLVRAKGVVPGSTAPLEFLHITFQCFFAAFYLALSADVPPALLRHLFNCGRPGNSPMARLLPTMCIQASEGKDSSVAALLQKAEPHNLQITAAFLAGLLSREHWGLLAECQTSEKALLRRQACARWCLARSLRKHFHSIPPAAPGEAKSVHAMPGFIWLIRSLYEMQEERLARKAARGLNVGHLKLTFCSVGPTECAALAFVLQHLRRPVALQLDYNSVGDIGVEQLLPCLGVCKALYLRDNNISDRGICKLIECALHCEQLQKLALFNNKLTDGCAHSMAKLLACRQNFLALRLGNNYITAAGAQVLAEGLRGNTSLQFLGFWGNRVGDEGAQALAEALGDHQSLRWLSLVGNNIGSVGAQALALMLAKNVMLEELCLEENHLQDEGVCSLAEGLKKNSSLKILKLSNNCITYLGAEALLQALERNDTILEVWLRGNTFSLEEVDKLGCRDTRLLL
Sequence of Beta-galactosidase (Q8VNN2 whole entry): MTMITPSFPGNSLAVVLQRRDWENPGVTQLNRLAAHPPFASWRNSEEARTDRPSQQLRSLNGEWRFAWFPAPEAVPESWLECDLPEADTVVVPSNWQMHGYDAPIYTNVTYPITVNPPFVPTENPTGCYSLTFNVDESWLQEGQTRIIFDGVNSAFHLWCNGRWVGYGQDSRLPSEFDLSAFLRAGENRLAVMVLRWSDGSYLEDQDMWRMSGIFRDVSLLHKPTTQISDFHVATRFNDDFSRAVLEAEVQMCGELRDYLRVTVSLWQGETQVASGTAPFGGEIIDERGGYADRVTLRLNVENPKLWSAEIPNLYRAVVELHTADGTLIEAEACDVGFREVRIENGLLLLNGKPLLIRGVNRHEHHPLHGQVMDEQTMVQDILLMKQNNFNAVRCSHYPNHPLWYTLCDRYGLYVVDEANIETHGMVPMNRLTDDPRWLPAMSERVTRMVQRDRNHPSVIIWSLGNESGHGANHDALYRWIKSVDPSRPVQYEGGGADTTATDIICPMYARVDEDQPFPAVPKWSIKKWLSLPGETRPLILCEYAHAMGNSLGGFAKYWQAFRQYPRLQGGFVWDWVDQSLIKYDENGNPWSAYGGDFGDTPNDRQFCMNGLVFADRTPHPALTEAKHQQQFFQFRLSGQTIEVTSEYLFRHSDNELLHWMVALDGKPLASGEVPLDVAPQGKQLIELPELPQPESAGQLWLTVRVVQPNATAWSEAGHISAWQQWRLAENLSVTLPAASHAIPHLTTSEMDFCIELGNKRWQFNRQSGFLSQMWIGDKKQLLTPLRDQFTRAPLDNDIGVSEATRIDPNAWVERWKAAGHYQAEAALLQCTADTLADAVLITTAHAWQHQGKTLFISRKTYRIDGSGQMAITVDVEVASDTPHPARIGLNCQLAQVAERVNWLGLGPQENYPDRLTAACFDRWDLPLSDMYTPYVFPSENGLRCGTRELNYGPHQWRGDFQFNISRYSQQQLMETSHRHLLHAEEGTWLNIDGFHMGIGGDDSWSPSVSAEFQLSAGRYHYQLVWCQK

COCCN(C(S)=Nc1c(C)cc(C)cc1C)C(C)c1cccnc1 (stereo not drawn)
AC50 (Escherichia coli): 57.7 µM (active)

COc1cc(NC(=O)CSc2ncnc3scc(-c4ccccc4)c23)c(C(=O)O)cc1OC
IC50 (Leucine aminopeptidase): < 1 µM (active)
IC50 (Aminopeptidase N): 40.1 µM (active)

Cc1ccc(N=C2C(=O)Nc3c(C)cccc32)cc1
EC50 (Beta-galactosidase): > 40 µM (inactive)
IC50 [1]: > 40 µM (not active)

CC(C)(C)n1nnnc1CN(Cc1ccc(F)cc1)Cc1ccco1
EC50 [2]: 6.27 µM (active)

O=C(CCCSc1nc2ccccc2[nH]1)NCc1ccccc1Cl
EC50 [3]: 3.76 µM (active)

CN1CCN(c2nc3c(c(=O)n(C)c(=O)n3C)n2CC(=O)C23CC4CC(CC(C4)C2)C3)CC1
EC50 [3]: 2.11 µM (active)

COc1ccc(NS(=O)(=O)c2ccc(-c3cnc(C4CC4)o3)cc2)cc1OC
AC50 [4]: 1.33 µM (active)
EC50 (HEK293 [5]): 2.04 µM (active)
AC50 [6]: 2.32 µM (active)
IC50 (HEK293 [7]): > 20 µM (inactive)
IC50 (HEK293 [8]): 6.05 µM (active)
IC50 [9]: > 80 µM (inactive)
IC50 (HEK293 [10]): 6.25 µM (active)
IC50 (HEK293 [11]): 18.4 µM (active)
EC50 [12]: 14.4 µM (active)
AC50 (INS1): 3.52 µM (active)

O=C(COC(=O)CCc1ccc(S(=O)(=O)N2CCCCC2)cc1)Nc1ccc2c(c1)OCO2
EC50 [2]: 26.4 µM (active)

CN1CCN(Cc2nc3ccccc3c(=O)n2Cc2nc(-c3cccc([N+](=O)[O-])c3)cs2)CC1
IC50 (Aminopeptidase N): 79.7 µM (active)

O=C(CSc1nc2ccccc2o1)c1ccc(O)c(O)c1
IC50 [13]: 4.15 µM (active)
IC50 [14]: 3.06 µM (active)

CCOC(=O)C1(c2ccccc2)CCN(CC(=O)Nc2ccc(C)cc2)CC1
EC50 [3]: 2.99 µM (active)
